Results on 18 molecules are retold here after patent publication US8501755B2, “Tetrahydropyridothienopyrimidine compounds and methods of use thereof” (Bayer Intellectual Property GmbH, priority 2006, dated 2013).

Each structure is given as a SMILES string. pIC50: −log10 of the molar value.

Format in all cases: cell-based
One experiment concerns A431 cells. In words: In vitro tumor cell proliferation assay (Cell Titer-Glo) in A431 cells. The settings on record: Homo sapiens, A-431, 72 h, A431 human epidermoid carcinoma overexpressing HER1; 72 hours exposure; read-out: IC50, activities in A431 cell lines. The text has this:
(§1) The tumor cell proliferation assay used to test the compounds of the present invention involves a readout called Cell Titer-Glow® Luminescent Cell Viability Assay developed by Promega® (Cunningham, BA “A Growing Issue: Cell Proliferation Assays, Modern kits ease quantification of cell growth” The Scientist 2001, 15(13), 26, and Crouch, S P et al., “The use of ATP bioluminescence as a measure of cell proliferation and cytotoxicity” Journal of Immunological Methods 1993, 160, 81-88), that measures inhibition of cell proliferation. Generation of a luminescent signal corresponds to the amount of ATP present, which is directly proportional to the number of metabolically active (proliferating) cells. A431 cells [human epidermoid carcinoma, ATCC # HTB-20, overexpressing HER1 (EGFR, ErbB1)] and N87 [human gastric carcinoma, ATCC # CRL-1555, overexpressing HER2 (ErbB2) and HER1 (EGFR, ErbB1)] were plated at a density of 2.5×10^3 cells/well in 96 well black-clear bottom tissue culture plates in RPMI media with 10% Fetal Bovine Serum and incubated at 37° C. Twenty-four hours later, test compounds are added at a final concentration range from as high 100 μm to as low […] depend on the activities of the tested compounds in serial dilutions at a final DMSO concentration of 0.1%. Cells were incubated for 72 hours at 37° C. in complete growth media after addition of the test compound. After 72 hours of drug exposure, the plates were equilibrated to room temperature for approximately 30 min. Then, using a Promega Cell Titer Glo Luminescent® assay kit, lysis buffer containing 100 microliters of the enzyme luciferase and its substrate, luciferin mixture, was added to each well. The plates were mixed for 2 min on orbital shaker to ensure cell lysis and incubated for 10 min at room temperature to stabilize luminescence signal. The samples were read on VICTOR2 using Luminescence protocol, and analyzed with Analyze5 software to generate IC50 values.
A general note: Cellular ATP, detected with luciferase, serves as a proxy for viable cell number.

The subject of the next experiment is N87. In words: In vitro tumor cell proliferation assay (Cell Titer-Glo) in N87 cells. The settings on record: N87 human gastric carcinoma overexpressing HER2 and HER1; 72 hours exposure; read-out: IC50, activities in N87 cell lines.
Description: as §1

Another experiment concerns H1975 cells. The experiment can be described thus: In vitro tumor cell proliferation assay (Cell Titer-Glo) in H1975 cells. The note with it: NCI-H1975; H1975 human NSCLC expressing mutant HER1 (L858R,T790M); 72 hours exposure; read-out: IC50, activities in H 1975 cell lines. The source says:
The tumor cell proliferation assay used to test the compounds of the present invention involves a readout called Cell Titer-Glow® Luminescent Cell Viability Assay developed by Promega® (Cunningham, BA “A Growing Issue: Cell Proliferation Assays, Modern kits ease quantification of cell growth” The Scientist 2001, 15(13), 26, and Crouch, S P et al., “The use of ATP bioluminescence as a measure of cell proliferation and cytotoxicity” Journal of Immunological Methods 1993, 160, 81-88), that measures inhibition of cell proliferation. Generation of a luminescent signal corresponds to the amount of ATP present, which is directly proportional to the number of metabolically active (proliferating) cells.
H1975 cells [human non small cell lung carcinoma, ATCC # CRL-5908, expressing mutant HER1 [(EGFR, ErbB1)(L858R,T790M] were plated at a density of 3×10^3 cells/well in 96 well black-clear bottom tissue culture plates in RPMI media with 10% Fetal Bovine Serum and incubated at 37° C. Twenty-four hours later, test compounds are added at a final concentration range from as high 10 uM to as low 64 pM depending on the activities of the tested compounds in serial dilutions at a final DMSO concentration of 0.1%. Cells were incubated for 72 hours at 37° C. in complete growth media after addition of the test compound. After 72 hours of drug exposure, the plates were equilibrated to room temperature for approximately 30 min. Then, using a Promega Cell Titer Glo Luminescent® assay kit, lysis buffer containing 100 microliters of the enzyme luciferase and its substrate, luciferin mixture, was added to each well. The plates were mixed for 2 min on orbital shaker to ensure cell lysis and incubated for 10 min at room temperature to stabilize luminescence signal. The samples were read on VICTOR2 using Luminescence protocol, and analyzed with Analyze5 software to generate IC50 values.

In general, pIC50 refers to the negative decadic logarithm of the IC50, by convention in mol/L. On to `O=C(/C=C/CN1CCOCC1)N1CCc2c(sc3ncnc(Nc4ccc(OCc5cccc(F)c5)c(Cl)c4)c23)C1` [Example 10, N-{3-chloro-4-[(3-fluorobenzyl)oxy]phenyl}-7-[(2E)-4-morpholin-4-ylbut-2-enoyl]-5,6,7,8-tetrahydropyrido[4′,3′:4,5]thieno[2,3-d]pyrimidin-4-amine], for which the pIC50 in the experiment on A431 cells is > 6.70; in the experiment with N87, > 6.70; in the experiment on H1975 cells, 5.00 to 6.00.
Consider `CN(C)C/C=C/C(=O)N1CCc2c(sc3ncnc(Nc4ccc(OCc5cccc(F)c5)c(Cl)c4)c23)C1` [Example 11, N-{3-chloro-4-[(3-fluorobenzyl)oxy]phenyl}-7-[(2E)-4-(dimethylamino)but-2-enoyl]-5,6,7,8-tetrahydropyrido[4′,3′:4,5]thieno[2,3-d]pyrimidin-4-amine], for which the pIC50 with A431 cells was > 6.70; in the experiment with N87 it was > 6.70; in the experiment with H1975 cells, 5.00 to 6.00.
In the case of `O=C(/C=C/CN1CCCCC1)N1CCc2c(sc3ncnc(Nc4ccc(F)c(Cl)c4)c23)C1` [Example 12, N-(3-chloro-4-fluorophenyl)-7-[(2E)-4-piperidin-1-ylbut-2-enoyl]-5,6,7,8-tetrahydropyrido[4′,3′:4,5]thieno[2,3-d]pyrimidin-4-amine], the results for the pIC50 with A431 cells, with N87 and in the experiment with H1975 cells were > 6.70, > 6.70 and 6.00 to 6.70, respectively.
For the molecule `CCN(CC)C/C=C/C(=O)N1CCc2c(sc3ncnc(Nc4ccc(OCc5cccc(F)c5)c(Cl)c4)c23)C1` [Example 13, N-{3-chloro-4-[(3-fluorobenzyl)oxy]phenyl}-7-[(2E)-4-(diethylamino)but-2-enoyl]-5,6,7,8-tetrahydropyrido[4′,3′:4,5]thieno[2,3-d]pyrimidin-4-amine], the pIC50 in the experiment on A431 cells is > 6.70; in the experiment with N87 it was > 6.70; in the experiment on H1975 cells, 5.00 to 6.00.
Consider `CN1CCN(C/C=C/C(=O)N2CCc3c(sc4ncnc(Nc5ccc(OCc6cccc(F)c6)c(Cl)c5)c34)C2)CC1` [Example 14, N-{3-chloro-4-[(3-fluorobenzyl)oxy]phenyl}-7-[(2E)-4-(4-methylpiperazin-1-yl)but-2-enoyl]-5,6,7,8-tetrahydropyrido[4′,3′:4,5]thieno[2,3-d]pyrimidin-4-amine], for which the pIC50 was > 6.70 with A431 cells, > 6.70 in the experiment on N87 and 5.00 to 6.00 with H1975 cells.
On to `C#Cc1cccc(Nc2ncnc3sc4c(c23)CCN(C(=O)/C=C/CN2CCOCC2)C4)c1` [Example 15, N-(3-ethynylphenyl)-7-[(2E)-4-morpholin-4-ylbut-2-enoyl]-5,6,7,8-tetrahydropyrido[4′,3′:4,5]thieno[2,3-d]pyrimidin-4-amine], for which the negative logarithm of the IC50 (pIC50) in the experiment with A431 cells was > 6.70; in the experiment on N87, > 6.70; with H1975 cells, 5.00 to 6.00.
As to `C#Cc1cccc(Nc2ncnc3sc4c(c23)CCN(C(=O)/C=C/CN(CC)CC)C4)c1` [Example 16, 7-[(2E)-4-(diethylamino)but-2-enoyl]-N-(3-ethynylphenyl)-5,6,7,8-tetrahydropyrido[4′,3′:4,5]thieno[2,3-d]pyrimidin-4-amine], the negative logarithm of the IC50 (pIC50) with A431 cells is > 6.70; in the experiment with N87, > 6.70; in the experiment with H1975 cells, 6.00 to 6.70.
Consider `C#Cc1cccc(Nc2ncnc3sc4c(c23)CCN(C(=O)/C=C/CN(C)C)C4)c1` [Example 17, 7-[(2E)-4-(dimethylamino)but-2-enoyl]-N-(3-ethynylphenyl)-5,6,7,8-tetrahydropyrido[4′,3′:4,5]thieno[2,3-d]pyrimidin-4-amine], for which the pIC50 was > 6.70 in the experiment on A431 cells, > 6.70 with N87 and 6.00 to 6.70 with H1975 cells.
Take `O=C(/C=C/CN1CCCCC1)N1CCc2c(sc3ncnc(Nc4ccc(OCc5cccc(F)c5)c(Cl)c4)c23)C1` [Example 19, N-{3-chloro-4-[(3-fluorobenzyl)oxy]phenyl}-7-[(2E)-4-piperidin-1-ylbut-2-enoyl]-5,6,7,8-tetrahydropyrido[4′,3′: 4,5]thieno[2,3-d]pyrimidin-4-amine]: the pIC50 with A431 cells was > 6.70; in the experiment on N87, > 6.70; with H1975 cells, 5.00 to 6.00.
Turning to `C#Cc1cccc(Nc2ncnc3sc4c(c23)CCN(C(=O)/C=C/CN2CCCCC2)C4)c1` [Example 20, N-(3-ethynylphenyl)-7-[(2E)-4-piperidin-1-ylbut-2-enoyl]-5,6,7,8-tetrahydropyrido [4′,3′:4,5]thieno[2,3-d]pyrimidin-4-amine], the pIC50 with A431 cells was > 6.70; in the experiment with N87, > 6.70; in the experiment on H1975 cells, 6.00 to 6.70.
In the case of `O=C(/C=C/CN1CCCC1)N1CCc2c(sc3ncnc(Nc4ccc(F)c(Cl)c4)c23)C1` [Example 21, N-(3-chloro-4-fluorophenyl)-7-[(2E)-4-pyrrolidin-1-ylbut-2-enoyl]-5,6,7,8-tetrahydropyrido [4′,3′:4,5]thieno[2,3-d]pyrimidin-4-amine], the pIC50 in the experiment on A431 cells, in the experiment with N87 and with H1975 cells was > 6.70 in each case.
As to `C=CC(=O)N1CCc2c(sc3ncnc(Nc4ccc(F)c(Cl)c4)c23)C1` [Example 22, 7-acryloyl-N-(3-chloro-4-fluorophenyl)-5,6,7,8-tetrahydropyrido [4′,3′:4,5]thieno[2,3-d]pyrimidin-4-amine], the pIC50 with A431 cells was > 6.70; in the experiment with N87 it was > 6.70; in the experiment with H1975 cells, 6.00 to 6.70.
As for `C/C=C/C(=O)N1CCc2c(sc3ncnc(Nc4ccc(F)c(Cl)c4)c23)C1` [Example 23, 7-[(2E)-but-2-enoyl]-N-(3-chloro-4-fluorophenyl)-5,6,7,8-tetrahydropyrido [4′,3′:4,5]thieno[2,3-d]pyrimidin-4-amine], the pIC50 in the experiment on A431 cells was 5.00 to 6.00; with N87 it was 5.30 to 6.70; in the experiment with H1975 cells, 5.00 to 6.00.
For the molecule `O=C(/C=C/CN1CCCC1)N1CCc2c(sc3ncnc(Nc4ccc(OCc5ccccn5)c(Cl)c4)c23)C1` [Example 24, N-[3-chloro-4-(pyridin-2-ylmelhoxy)phenyl]-7-[(2E)-4-pyrrolidin-1-ylbut-2-enoyl]-5,6,7,8-tetrahydropyrido [4′,3′:4,5]thieno[2,3-d]pyrimidin-4-amine], the pIC50 is 6.00 to 6.70 in the experiment on A431 cells, > 6.70 in the experiment with N87 and > 6.70 in the experiment with H1975 cells.
Regarding `O=C(/C=C/CN1CCCC1)N1CCc2c(sc3ncnc(Nc4ccc(OCc5cccc(F)c5)c(Cl)c4)c23)C1` [Example 25, N-{3-chloro-4-[(3-fluorobenzyl)oxy]phenyl}-7-[(2E)-4-pyrrolidin-1-ylbut-2-enoyl]-5,6,7,8-tetrahydropyrido [4′,3′:4,5]thieno[2,3-d]pyrimidin-4-amine], the pIC50 in the experiment with A431 cells is 6.00 to 6.70; in the experiment with N87 it was > 6.70; in the experiment on H1975 cells, 6.00 to 6.70.
As for `C#Cc1cccc(Nc2ncnc3sc4c(c23)CCN(C(=O)/C=C/CN2CCCC2)C4)c1` [Example 26, N-(3-ethynylphenyl)-7-[(2E)-4-pyrrolidin-1-ylbut-2-enoyl]-5,6,7,8-tetrahydropyrido [4′,3′:4,5]thieno[2,3-d]pyrimidin-4-amine], the negative-log IC50 (pIC50) with A431 cells, with N87 and in the experiment on H1975 cells was > 6.70 each time.
For the molecule `C#Cc1cccc(Nc2ncnc3sc4c(c23)CCN(C(=O)C=C)C4)c1` [Example 27, 7-acryloyl-N-(3-ethynylphenyl)-5,6,7,8-tetrahydropyrido [4′,3′:4,5]thieno[2,3-d]pyrimidin-4-amine], the pIC50 was 5.00 to 6.00 in the experiment with A431 cells, > 6.70 with N87 and 6.00 to 6.70 in the experiment on H1975 cells.
For `C=CC(=O)N1CCc2c(sc3ncnc(Nc4ccc(OCc5ccccn5)c(Cl)c4)c23)C1` [Example 28], in that order: 5.00 to 6.00, > 6.70 and > 6.70.
